Legend:
[1] = molecular target: Recombinant human CSF1R kinase (Homo sapiens (Human), UniProt P07333); experiment: Measurement of CSF1R kinase activity at molecular level (Z-LYTE); type: biochemical; conditions: Z-LYTE Tyr 1 peptide
Protocol: Invitrogen, PV3227; • Development reagent B: Invitrogen, PV3295; • Development buffer: Invitrogen. P3127; • Stopping solution: Invitrogen, P3094; • Recombinant human CSF1R kinase: Invitrogen, P[…]; • 384 well plate, black: Corning. 3575; • Envision: Perkin Elmer. 2. […] The test compound was diluted in gradient to 4-fold the reaction concentration and the concentration of DMSO was kept at 8%. […] The mixture was mixed gently with a pipette. • 4) A phosphorylated peptide substrate solution (PP solution): 0.4 μL of Z-LYTETM Tyr1 phosphorylated peptide substrate was added to 99.6 μl of 1.33× kinase buffer. • 5) ATP solution: 10 mM of ATP was diluted to 760 μM with 1.33× kinase buffer to prepare ATP solution. • 6) Development solution: Development reagent B was diluted with Development buffer at a ratio of 1:200. 3. […] 2.5 μL of 4× test compound was added to each reaction well of the 384 plate, and the corresponding volume of 8% DMSO was added to the control well. The plate was placed on ice. […] After adding the reaction components, the 384-well plate was sealed and incubated at 25-30° C. for 1 h in dark. 2) Development Reaction 5 μL of Development solution was added to each well, sealed and incubated at 25-30° C. for another 1 h in dark. 3) Reaction Stopping and Plate Reading 5 μL of stopping solution was added to each well. The Coumarin value (excitation at 400 nm, emission at 445 nm) and Fluorescein value (excitation at 400 nm, emission at 520 nm) were measured, respectively. 4. […] Coumarin emission read-out (445 nm)/Fluorescein emission read-out (520 nm); • C3 445 nm: 100% phosphorylated Coumarin emission read-out; • C3 520 nm: 100% phosphorylated Fluorescein emission read-out; • C1 445 nm: 0% phosphorylated Coumarin emission read-out; • C1 520 nm: 0% phosphorylated Fluorescein emission read-out. […] 5. IC50 values: calculated by using software XL-FitTM (version 5.3) supplied by ID Business Solutions (Guildford, UK), which is an additional software to Microsoft Excel.

[2] = molecular target: CSF1R phosphorylation in THP-1 cells (Homo sapiens (Human), UniProt P07333); experiment: Detection of CSF1R phosphorylation activity at cell level (p-CSF1R ELISA, M-CSF stimulated THP-1 cells); type: cell-based; conditions: THP-1 cells, M-CSF stimulation, p-CSF1R ELISA; read-out: IC50
CSF1R phosphorylation in THP-1 cells, sequence (P07333 20-972): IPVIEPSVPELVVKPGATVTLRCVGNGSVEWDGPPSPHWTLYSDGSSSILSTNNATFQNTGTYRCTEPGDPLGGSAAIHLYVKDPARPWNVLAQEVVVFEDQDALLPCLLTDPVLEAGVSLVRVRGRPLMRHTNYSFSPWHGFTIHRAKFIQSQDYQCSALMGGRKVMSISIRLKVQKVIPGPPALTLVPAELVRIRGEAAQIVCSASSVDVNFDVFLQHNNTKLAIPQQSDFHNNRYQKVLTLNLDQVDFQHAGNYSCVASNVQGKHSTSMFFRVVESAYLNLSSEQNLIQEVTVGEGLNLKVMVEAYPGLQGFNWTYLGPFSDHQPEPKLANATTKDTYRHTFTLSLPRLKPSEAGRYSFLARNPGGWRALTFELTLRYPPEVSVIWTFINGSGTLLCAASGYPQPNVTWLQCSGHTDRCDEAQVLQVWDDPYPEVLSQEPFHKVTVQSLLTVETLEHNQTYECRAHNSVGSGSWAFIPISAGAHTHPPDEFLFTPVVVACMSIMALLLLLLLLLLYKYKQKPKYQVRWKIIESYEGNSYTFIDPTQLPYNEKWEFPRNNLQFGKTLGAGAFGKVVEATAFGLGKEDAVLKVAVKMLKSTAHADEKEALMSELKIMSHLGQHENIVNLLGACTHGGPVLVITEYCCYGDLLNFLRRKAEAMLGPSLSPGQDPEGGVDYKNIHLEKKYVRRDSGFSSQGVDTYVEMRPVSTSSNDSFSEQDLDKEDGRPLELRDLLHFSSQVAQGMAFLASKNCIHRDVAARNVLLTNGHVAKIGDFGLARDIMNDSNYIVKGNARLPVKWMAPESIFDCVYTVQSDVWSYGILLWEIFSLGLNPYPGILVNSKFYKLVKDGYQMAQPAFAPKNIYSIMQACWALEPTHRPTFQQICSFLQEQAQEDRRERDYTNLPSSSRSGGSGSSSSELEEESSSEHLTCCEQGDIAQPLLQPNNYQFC
Protocol: THP-1 (ATCC), human acute monocytic leukemia cells.
3. Treatment of cells and preparation of lysis buffer
5 μL. of the diluted compound was added to the 50 μL cell culture system, the culture was cultured in a 5% CO2, 37° C. cell incubator for 60 min, 300 ng/mL of M-CSF was added to the cells, and the mixture was stimulated in the 37° C. cell incubator for 1 min, added 50 μL of cell lysis buffer, and stored in a refrigerator at −80° C.
100 μL/well of the p-CSF1R capture antibody diluted to 0.8 μg/mL with PBS was added to the ELISA plate, and the plate was coated on a shaker at room temperature overnight. The culture was washed with PBST, and then added blocking solution and incubated at room temperature for 2 h. The culture was washed with PBST, added 90 μL of cell lysis buffer, and incubated on a shaker at 25° C. for 2 h. The plate was washed with PBST three times, added 100 μL of anti-p-tyrosine-HRP detection antibody diluted with 0.1% PBS-BSA diluent, and incubated on a shaker at 25° C. for 2 h. The plate was washed with PBST washing liquid, added 100 μL of chromogenic substrate and incubated at room temperature for 10-20 min. The reaction was stopped by adding 50 μL of 2N H2SO4. The optical density signal (450/570 nm) of each well was detected in Labsystems Multiskan K3 or Envision.
wherein • Drug-treated well read-out: indicating the optical density signal of a cell well with the test compound treatment. • Background read-out: indicating the optical density signal of a well without cells but with cell lysis buffer. • Cell well read-out: indicating the optical density signal of a cell well not treated with the compound.
6. Calculation of IC50: obtained by using XL-Fit 5.3 software, […]

Recombinant human CSF1R kinase, sequence (P07333 20-972): as above

| IC50 [1] [nM] | IC50 [2] [nM] | Structure (SMILES) |
| --- | --- | --- |
| 10 | 42 | COc1ccc([C@H]2COc3cc(Oc4ccc5nccc(=O)n5c4)cnc3O2)cc1 [Compound 64] |
| 5 | 10 | COc1ccc([C@@H]2COc3cc(Oc4ccc5ncc(C)c(=O)n5c4)cnc3O2)cc1 [Compound 65] |
| 10 | 56 | COc1ccc([C@H]2COc3cc(Oc4ccc5ncc(C)c(=O)n5c4)cnc3O2)cc1 [Compound 66] |
| 5 | 16 | COc1ccc([C@@H]2COc3cc(Oc4ccnc(-c5cnn(C)c5)c4)cnc3O2)cc1 [Compound 67] |
| 6 | 21 | COc1ccc([C@H]2COc3cc(Oc4ccnc(-c5cnn(C)c5)c4)cnc3O2)cc1 [Compound 68] |
| 3 | 17 | COc1ccc([C@@H]2COc3cc(Oc4ccnc(-c5cnn(C)c5)c4)cnc3O2)cn1 [Compound 69] |
| 8 | 15 | COc1ccc([C@H]2COc3cc(Oc4ccnc(-c5cnn(C)c5)c4)cnc3O2)cn1 [Compound 70] |
| 30 | 114 | O=c1ccnc2ccc(Oc3cnc4c(c3)OC[C@H](c3ccc(C5CC5)cn3)O4)cn12 [Compound 71] |
| 14 | 32 | O=c1ccnc2ccc(Oc3cnc4c(c3)OC[C@@H](c3ccc(C5CC5)cn3)O4)cn12 [Compound 72] |
| 6 | 17 | Cn1cc(-c2cc(Oc3cnc4c(c3)OC[C@H](c3ccc(C5CC5)cn3)O4)ccn2)cn1 [Compound 73] |
| 5 | 9 | Cn1cc(-c2cc(Oc3cnc4c(c3)OC[C@@H](c3ccc(C5CC5)cn3)O4)ccn2)cn1 [Compound 74] |
| 15 | 117 | Cc1cnc2ccc(Oc3cnc4c(c3)OC[C@H](c3ccc(C5CC5)cn3)O4)cn2c1=O [Compound 75] |
| 8 | 18 | Cc1cnc2ccc(Oc3cnc4c(c3)OC[C@@H](c3ccc(C5CC5)cn3)O4)cn2c1=O [Compound 76] |
| 26 | 64 | COc1ccc([C@@H]2COc3cc(Oc4ccc5nccc(=O)n5c4)cnc3O2)nc1 [Compound 78] |
| 30 | 182 | COc1ccc([C@H]2COc3cc(Oc4ccc5ncc(C)c(=O)n5c4)cnc3O2)nc1 [Compound 79] |
| 13 | 22 | COc1ccc([C@@H]2COc3cc(Oc4ccc5ncc(C)c(=O)n5c4)cnc3O2)nc1 [Compound 80] |
| 10 | 32 | COc1ccc([C@H]2COc3cc(Oc4ccnc(-c5cnn(C)c5)c4)cnc3O2)nc1 [Compound 81] |
| 11 | 13 | COc1ccc([C@@H]2COc3cc(Oc4ccnc(-c5cnn(C)c5)c4)cnc3O2)nc1 [Compound 82] |
| 7 | 138 | COc1ccc([C@H]2COc3cc(Oc4ccc5nccc(=O)n5c4)cnc3O2)cn1 [Compound 83, (S)-7-((3-(6-methoxypyridin-3-yl)-2,3-dihydro-[1,4]dioxino[2,3-b]pyridin-7-yl)oxy)-4H-pyrido[1,2-a]pyrimidin-4-one] |
| 8 | 84 | COc1ccc([C@H]2COc3cc(Oc4ccc5ncc(C)c(=O)n5c4)cnc3O2)cn1 [Compound 84] |
| 17 | 154 | COc1ccc([C@@H]2COc3cc(Oc4ccc5nccc(=O)n5c4)cnc3O2)cn1 [Compound 85] |
| 8 | 56 | COc1ccc([C@@H]2COc3cc(Oc4ccc5ncc(C)c(=O)n5c4)cnc3O2)cn1 [Compound 86] |

Source: patent US20240092774A1, “HETEROAROMATIC COMPOUNDS AND USES THEREOF” (HUTCHISON MEDIPHARMA LIMITED, priority 2020, published 2024)
